# Test results: patent publication US20260132140A1, “IMIDAZOLYL-AMINO-PYRAZINE-CARBONITRILS AS CHK-1 INHIBITORS” (BenevolentAI Bio Limited, priority 2022, published 2026)
# pIC50: −log10 of the molar value. Like-named read-outs stand apart in the source and are kept apart here.
# Key:
# human Chk1 kinase = target: T1, human Chk1 kinase (Homo sapiens, UniProt O14757); assay: biochemical
# T1 sequence (O14757 1-476): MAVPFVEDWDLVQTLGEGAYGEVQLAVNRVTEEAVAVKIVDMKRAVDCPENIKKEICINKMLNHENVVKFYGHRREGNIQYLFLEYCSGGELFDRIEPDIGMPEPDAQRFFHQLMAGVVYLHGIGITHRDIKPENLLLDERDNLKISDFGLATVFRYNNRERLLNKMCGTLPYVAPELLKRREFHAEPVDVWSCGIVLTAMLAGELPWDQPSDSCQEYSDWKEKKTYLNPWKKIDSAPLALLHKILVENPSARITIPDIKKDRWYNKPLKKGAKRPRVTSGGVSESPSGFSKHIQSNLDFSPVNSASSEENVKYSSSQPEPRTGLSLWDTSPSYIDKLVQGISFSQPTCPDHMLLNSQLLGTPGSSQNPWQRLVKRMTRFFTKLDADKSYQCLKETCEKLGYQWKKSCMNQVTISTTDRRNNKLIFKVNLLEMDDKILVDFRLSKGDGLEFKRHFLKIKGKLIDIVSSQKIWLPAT
# GBM LN18 cells = assay: In vitro cell viability assay (Cell Titre Glo, 72 hours); format: cell-based; details: Homo sapiens, LN-18, read-out: LN18 pIC50 (converted)
# Method: GBM LN18 cells were incubated with increasing concentrations of selected compounds of the invention for 72 hours prior to the measurement of ATP in metabolically viable cells with the Cell Titre® Glo Luminescent reagent. A 10-point concentration response curve up to a maximum concentration of 10 μM was tested.
# The percent (%) effect i.e., inhibition at each concentration of compound was calculated based on, and relative to the amount of inhibition produced in the vehicle control and inhibited control wells contained within each plate.
# human Chk2 kinase = human Chk2 kinase (Homo sapiens, UniProt O96017); assay: biochemical
# Sequence of human Chk2 kinase (O96017 whole entry): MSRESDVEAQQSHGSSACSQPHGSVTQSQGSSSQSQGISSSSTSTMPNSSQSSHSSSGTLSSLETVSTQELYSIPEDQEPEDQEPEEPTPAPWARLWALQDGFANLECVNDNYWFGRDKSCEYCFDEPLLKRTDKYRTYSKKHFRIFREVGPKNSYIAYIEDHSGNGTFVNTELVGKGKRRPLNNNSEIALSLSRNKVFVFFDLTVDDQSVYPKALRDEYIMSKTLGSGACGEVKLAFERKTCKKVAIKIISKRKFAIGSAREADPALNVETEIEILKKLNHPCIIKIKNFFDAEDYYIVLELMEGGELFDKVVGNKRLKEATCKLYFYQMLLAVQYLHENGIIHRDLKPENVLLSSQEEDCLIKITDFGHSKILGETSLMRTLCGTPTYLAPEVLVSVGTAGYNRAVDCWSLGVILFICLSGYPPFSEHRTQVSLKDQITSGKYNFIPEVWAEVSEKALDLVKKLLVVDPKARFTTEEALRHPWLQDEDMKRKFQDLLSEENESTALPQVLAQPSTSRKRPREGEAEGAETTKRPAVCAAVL
# [1] = tested on: pChk1(Ser296) in SW620 cells; assay: pChk1(Ser296) sandwich ELISA, cell-based on-target kinase activity; details: Homo sapiens, read-out: SW620 pIC50 (converted)
# Method: ELISA assays were performed as per the manufacturer's protocol. […] Selected compounds of the invention were tested as a 8-point concentration response up to a maximum concentration of either 1 μM, 3 μM or 10 μM. The percent (%) effect i.e. inhibition at each concentration of compound was calculated based on, and relative to, the amount of inhibition produced in the vehicle control and inhibited control wells contained within each plate.
# RSK2 = target: T2, RSK2 (Homo sapiens, UniProt P51812); assay: RSK1-4 kinase assay (Eurofins KinaseProfiler, radiometric): RSK2; format: biochemical; details: approximately ATP Km
# T2 construct: purchased Eurofins (KinaseProfiler service)
# T2 sequence (P51812 whole entry): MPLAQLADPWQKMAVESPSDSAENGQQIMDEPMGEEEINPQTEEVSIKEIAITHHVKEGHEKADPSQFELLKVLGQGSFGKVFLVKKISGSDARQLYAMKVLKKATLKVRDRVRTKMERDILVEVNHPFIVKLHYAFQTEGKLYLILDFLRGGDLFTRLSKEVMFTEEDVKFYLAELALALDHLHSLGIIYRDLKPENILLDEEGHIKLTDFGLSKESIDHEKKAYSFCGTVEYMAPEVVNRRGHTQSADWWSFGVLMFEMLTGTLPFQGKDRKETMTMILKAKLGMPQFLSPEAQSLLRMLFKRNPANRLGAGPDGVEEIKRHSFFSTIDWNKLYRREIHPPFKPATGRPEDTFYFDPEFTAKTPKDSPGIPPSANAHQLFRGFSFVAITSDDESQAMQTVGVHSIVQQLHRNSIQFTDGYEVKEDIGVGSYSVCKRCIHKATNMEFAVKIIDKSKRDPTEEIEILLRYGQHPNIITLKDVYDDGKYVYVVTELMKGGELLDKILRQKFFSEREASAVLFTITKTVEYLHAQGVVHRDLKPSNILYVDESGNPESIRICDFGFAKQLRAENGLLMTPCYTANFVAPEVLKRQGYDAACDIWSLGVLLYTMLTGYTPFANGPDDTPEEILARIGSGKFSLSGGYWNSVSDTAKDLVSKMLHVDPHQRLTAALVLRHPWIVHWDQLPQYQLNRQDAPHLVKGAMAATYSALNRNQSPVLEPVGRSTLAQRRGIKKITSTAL
# Source text: (§1) The radiometric kinase activity assays were run at approximately the ATP Km for each kinase and the IC50 data is shown in Table 24.
# RSK3 = target: T3, RSK3 (Homo sapiens, UniProt Q15349); assay: RSK1-4 kinase assay (Eurofins KinaseProfiler, radiometric): RSK3; format: biochemical; details: approximately ATP Km
# T3 construct: purchased Eurofins (KinaseProfiler service)
# T3 sequence (Q15349 whole entry): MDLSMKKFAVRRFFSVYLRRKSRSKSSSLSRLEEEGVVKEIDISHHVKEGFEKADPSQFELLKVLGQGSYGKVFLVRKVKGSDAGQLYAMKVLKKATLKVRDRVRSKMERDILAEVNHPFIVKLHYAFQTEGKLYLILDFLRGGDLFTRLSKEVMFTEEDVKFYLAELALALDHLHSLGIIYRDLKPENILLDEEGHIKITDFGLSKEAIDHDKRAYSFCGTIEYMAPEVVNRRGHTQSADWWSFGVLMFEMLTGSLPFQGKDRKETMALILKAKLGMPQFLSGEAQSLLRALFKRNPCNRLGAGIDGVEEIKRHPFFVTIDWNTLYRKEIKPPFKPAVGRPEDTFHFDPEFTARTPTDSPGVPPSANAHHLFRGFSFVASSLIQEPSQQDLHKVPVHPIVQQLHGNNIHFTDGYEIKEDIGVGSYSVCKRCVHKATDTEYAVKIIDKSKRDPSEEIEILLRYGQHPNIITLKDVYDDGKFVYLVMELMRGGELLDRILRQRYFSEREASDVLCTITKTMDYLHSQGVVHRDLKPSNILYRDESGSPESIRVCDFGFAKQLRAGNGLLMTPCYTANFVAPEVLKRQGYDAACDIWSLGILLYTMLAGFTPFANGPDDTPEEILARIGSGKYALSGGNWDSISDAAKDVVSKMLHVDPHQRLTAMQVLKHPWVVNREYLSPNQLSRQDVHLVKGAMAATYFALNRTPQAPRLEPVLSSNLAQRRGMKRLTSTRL
# Source text: as §1
# RSK4 = target: T4, RSK4 (Homo sapiens, UniProt Q9UK32); assay: RSK1-4 kinase assay (Eurofins KinaseProfiler, radiometric): RSK4; format: biochemical; details: approximately ATP Km
# T4 construct: purchased Eurofins (KinaseProfiler service)
# T4 sequence (Q9UK32 whole entry): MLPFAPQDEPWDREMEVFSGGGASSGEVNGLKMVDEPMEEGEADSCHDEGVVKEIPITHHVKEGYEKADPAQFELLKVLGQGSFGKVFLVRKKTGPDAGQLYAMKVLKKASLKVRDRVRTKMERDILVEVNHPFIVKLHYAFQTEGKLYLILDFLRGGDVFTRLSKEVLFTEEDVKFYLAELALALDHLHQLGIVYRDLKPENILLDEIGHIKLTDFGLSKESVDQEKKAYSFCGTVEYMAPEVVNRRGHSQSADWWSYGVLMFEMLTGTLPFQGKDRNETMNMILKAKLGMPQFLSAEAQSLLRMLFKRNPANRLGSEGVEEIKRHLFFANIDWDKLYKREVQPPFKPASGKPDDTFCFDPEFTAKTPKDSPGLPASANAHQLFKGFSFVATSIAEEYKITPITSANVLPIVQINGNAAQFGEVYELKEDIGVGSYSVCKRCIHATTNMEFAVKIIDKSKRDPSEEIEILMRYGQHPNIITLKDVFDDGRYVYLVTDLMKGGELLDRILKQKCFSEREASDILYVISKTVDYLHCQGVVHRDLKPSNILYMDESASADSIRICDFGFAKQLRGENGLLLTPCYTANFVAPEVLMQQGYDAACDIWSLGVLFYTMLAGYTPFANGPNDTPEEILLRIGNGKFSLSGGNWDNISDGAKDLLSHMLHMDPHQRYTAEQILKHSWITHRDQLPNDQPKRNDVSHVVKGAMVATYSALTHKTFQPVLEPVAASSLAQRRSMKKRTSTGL
# Source text: as §1
# RSK1 = target: T5, RSK1 (Homo sapiens, UniProt Q15418); assay: RSK1-4 kinase assay (Eurofins KinaseProfiler, radiometric): RSK1; format: biochemical; details: approximately ATP Km
# T5 construct: purchased Eurofins (KinaseProfiler service)
# T5 sequence (Q15418 whole entry): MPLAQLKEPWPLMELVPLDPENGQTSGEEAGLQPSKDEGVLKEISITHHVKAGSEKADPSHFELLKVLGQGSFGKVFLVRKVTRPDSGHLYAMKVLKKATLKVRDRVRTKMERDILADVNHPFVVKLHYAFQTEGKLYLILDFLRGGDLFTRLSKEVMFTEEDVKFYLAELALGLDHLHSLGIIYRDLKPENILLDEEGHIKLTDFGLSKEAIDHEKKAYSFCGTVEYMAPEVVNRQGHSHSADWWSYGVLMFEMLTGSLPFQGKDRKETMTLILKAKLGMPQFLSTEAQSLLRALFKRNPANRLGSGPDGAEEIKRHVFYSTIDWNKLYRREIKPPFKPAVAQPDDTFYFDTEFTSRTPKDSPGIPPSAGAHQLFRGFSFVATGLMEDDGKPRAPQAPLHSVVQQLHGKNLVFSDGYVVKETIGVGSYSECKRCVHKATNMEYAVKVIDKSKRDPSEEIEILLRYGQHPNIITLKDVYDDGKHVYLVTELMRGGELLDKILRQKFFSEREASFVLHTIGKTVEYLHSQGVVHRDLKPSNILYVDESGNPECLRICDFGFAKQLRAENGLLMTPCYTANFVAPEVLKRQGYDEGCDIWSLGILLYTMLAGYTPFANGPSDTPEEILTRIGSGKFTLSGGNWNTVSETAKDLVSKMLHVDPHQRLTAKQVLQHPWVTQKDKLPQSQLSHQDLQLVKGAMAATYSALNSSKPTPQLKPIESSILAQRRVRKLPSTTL
# Source text: as §1
# [2] = SW-620, 2 h, neocarzinostatin 7.5 μM
# [3] = SW-620, neocarzinostatin 7.5 μM, 2 hours
pIC50 (human Chk1 kinase),pIC50 (human Chk2 kinase),"IC50 [1, 2] [µM]",pIC50 (RSK2),pIC50 (RSK3),pIC50 (RSK4),pIC50 (RSK1),SMILES,IC50 (GBM LN18 cells) [µM],"IC50 [1, 3] [µM]"
7.50 to 8.00,4.00 to 5.00,1 to 10,–,–,–,–,"N#Cc1cnc(Nc2cn(-c3ccc(N4CCC(N5CCC5)C4)cc3)cn2)cn1 (single isomer, unassigned) [Example 113, 5-((1-(4-(3-(Azetidin-1-yl)pyrrolidin-1-yl)phenyl)-1H-imidazol-4-yl)amino)pyrazine-2-carbonitrile]",< 1,–
–,–,–,8.70,8.40,8.30,7.70,"COc1cccc(OCCCN)c1-c1cc(Nc2cnc(C#N)cn2)n[nH]1 [Comparator Ex. 1, 5-((5-(2-(3-Aminopropoxy)-6-methoxyphenyl)-1H-pyrazol-3-yl)amino)pyrazine-2-carbonitrile, reference compound]",–,–
–,–,–,7.10,7.62,7.11,6.59,"COc1cc(N2CCN(C)CC2)ccc1-c1cc(Nc2cnc(C#N)cn2)n[nH]1 [Comparator Ex. 2, 5-((5-(2-Methoxy-4-(4-methylpiperazin-1-yl)phenyl)-1H-pyrazol-3-yl)amino)pyrazine-2-carbonitrile, reference compound]",–,–
–,–,–,6.76,7.22,6.79,6.24,"CCNCc1ccc(-c2cc(Nc3cnc(C#N)cn3)n[nH]2)c(OC)c1 [Comparator Ex. 3, 5-((5-(4-((Ethylamino)methyl)-2-methoxyphenyl)-1H-pyrazol-3-yl)amino)pyrazine-2-carbonitrile, reference compound]",–,–
> 8.00,5.00 to 6.00,1 to 10,–,–,–,–,"CN1C[C@@H]2CN(c3ccc(-n4cnc(Nc5cnc(C#N)cn5)c4)cc3)C[C@@H]21 [Example 1, 5-((1-(4-((1R,5R)-6-Methyl-3,6-diazabicyclo[3.2.0]heptan-3-yl)phenyl)-1H-imidazol-4-yl)amino)pyrazine-2-carbonitrile]",< 1,–
–,–,–,5.61,5.66,5.30,< 5.00,"CN1CCC(F)(c2ccc(-n3cnc(Nc4cnc(C#N)cn4)c3)cc2)CC1 [Example 4, 5-((1-(4-(4-Fluoro-1-methylpiperidin-4-yl)phenyl)-1H-imidazol-4-yl)amino)pyrazine-2-carbonitrile]",–,–
–,–,–,–,–,–,–,"COc1cc(N2CC[C@@H](N(C)C)C2)ccc1-n1cnc(Nc2cnc(C#N)cn2)c1 [Example 47, (R)-5-((1-(4-(3-(Dimethylamino)pyrrolidin-1-yl)-2-methoxyphenyl)-1H-imidazol-4-yl)amino)pyrazine-2-carbonitrile]",< 1,< 1
> 8.00,5.00 to 6.00,1 to 10,–,–,–,–,"Cc1nc(-n2cnc(Nc3cnc(C#N)cn3)c2)ccc1N1CC[C@@H](N(C)C)C1 [Example 59, (R)-5-((1-(5-(3-(Dimethylamino)pyrrolidin-1-yl)-6-methylpyridin-2-yl)-1H-imidazol-4-yl)amino)pyrazine-2-carbonitrile]",< 1,–
7.50 to 8.00,4.00 to 5.00,–,5.57,5.72,5.39,5.17,"CN1CCC12CN(c1ccc(-n3cnc(Nc4cnc(C#N)cn4)c3)cc1)C2 [Example 61, 5-((1-(4-(1-Methyl-1,6-diazaspiro[3.3]heptan-6-yl)phenyl)-1H-imidazol-4-yl)amino)pyrazine-2-carbonitrile]",–,–
–,–,–,–,–,–,–,"CN(C)[C@@H]1CCN(c2ccc(-n3cnc(Nc4cnc(C#N)cn4)c3)c(F)c2)C1 [Example 65, (R)-5-((1-(4-(3-(Dimethylamino)pyrrolidin-1-yl)-2-fluorophenyl)-1H-imidazol-4-yl)amino)pyrazine-2-carbonitrile]",< 1,1 to 10
–,–,–,–,–,–,–,"C[C@@H]1C[C@@H](N(C)C)CN1c1ccc(-n2cnc(Nc3cnc(C#N)cn3)c2)cc1 [Example 74, 5-((1-(4-((2R,4R)-4-(Dimethylamino)-2-methylpyrrolidin-1-yl)phenyl)-1H-imidazol-4-yl)amino)pyrazine-2-carbonitrile]",< 1,< 1
> 8.00,5.00 to 6.00,< 1,–,–,–,–,"C[C@@H]1C[C@@H](N(C)C)CN1c1ccc(-n2cnc(Nc3cnc(C#N)cn3)c2)nc1 [Example 85, 5-((1-(5-((2R,4R)-4-(Dimethylamino)-2-methylpyrrolidin-1-yl)pyridin-2-yl)-1H-imidazol-4-yl)amino)pyrazine-2-carbonitrile]",< 1,–
> 8.00,5.00 to 6.00,< 1,–,–,–,–,"CN[C@H]1CN(c2ccc(-n3cnc(Nc4cnc(C#N)cn4)c3)cc2)C[C@H]1F [Example 92, 5-((1-(4-((3R,4S)-3-Fluoro-4-(methylamino)pyrrolidin-1-yl)phenyl)-1H-imidazol-4-yl)amino)pyrazine-2-carbonitrile]",< 1,–
7.50 to 8.00,5.00 to 6.00,1 to 10,–,–,–,–,"N#Cc1cnc(Nc2cn(-c3ccc(N4CC[C@@H](N)C4)cc3)cn2)cn1 [Example 153, (R)-5-((1-(4-(3-Aminopyrrolidin-1-yl)phenyl)-1H-imidazol-4-yl)amino)pyrazine-2-carbonitrile]",1 to 10,–
> 8.00,5.00 to 6.00,1 to 10,–,–,–,–,"N#Cc1cnc(Nc2cn(-c3ccc(N4C[C@H](N)C5(CC5)C4)cc3)cn2)cn1 [Example 154, (R)-5-((1-(4-(7-Amino-5-azaspiro[2.4]heptan-5-yl)phenyl)-1H-imidazol-4-yl)amino)pyrazine-2-carbonitrile]",< 1,–
7.50 to 8.00,4.00 to 5.00,1 to 10,–,–,–,–,"C[C@@]1(N)CCN(c2ccc(-n3cnc(Nc4cnc(C#N)cn4)c3)cc2)C1 [Example 156, (R)-5-((1-(4-(3-Amino-3-methylpyrrolidin-1-yl)phenyl)-1H-imidazol-4-yl)amino)pyrazine-2-carbonitrile]",< 1,–
> 8.00,5.00 to 6.00,–,–,–,–,–,"C[C@@H]1C[C@@H](N)CN1c1ccc(-n2cnc(Nc3cnc(C#N)cn3)c2)cc1 [Example 165, 5-((1-(4-((2R,4R)-4-Amino-2-methylpyrrolidin-1-yl)phenyl)-1H-imidazol-4-yl)amino)pyrazine-2-carbonitrile]",< 1,–

SMILES,pIC50 (human Chk1 kinase),pIC50 (human Chk2 kinase),"IC50 [1, 2] [µM]",pIC50 (RSK2),pIC50 (RSK3),pIC50 (RSK4),pIC50 (RSK1),IC50 (GBM LN18 cells) [µM],"IC50 [1, 3] [µM]"
"C[C@H]1CN(c2ccc(-n3cnc(Nc4cnc(C#N)cn4)c3)cc2)C[C@@H]1N(C)C [Example 73, 5-((1-(4-((3R,4S)-3-(Dimethylamino)-4-methylpyrrolidin-1-yl)phenyl)-1H-imidazol-4-yl)amino)pyrazine-2-carbonitrile]",> 8.00,5.00 to 6.00,–,–,–,–,–,< 1,< 1
"CN(C)[C@]1(C)CCN(c2ccc(-n3cnc(Nc4cnc(C#N)cn4)c3)cc2)C1 [Example 78, (R)-5-((1-(4-(3-(Dimethylamino)-3-methylpyrrolidin-1-yl)phenyl)-1H-imidazol-4-yl)amino)pyrazine-2-carbonitrile]",> 8.00,5.00 to 6.00,–,–,–,–,–,< 1,< 1
"[2H]C([2H])([2H])N([C@@H]1CCN(c2ccc(-n3cnc(Nc4cnc(C#N)cn4)c3)cc2)C1)C([2H])([2H])[2H] [Example 84, (R)-5-((1-(4-(3-(Bis(methyl-d3)amino)pyrrolidin-1-yl)phenyl)-1H-imidazol-4-yl)amino)pyrazine-2-carbonitrile]",> 8.00,–,–,–,–,–,–,< 1,1 to 10
